According to patent US6552066B1, “Protein tyrosine kinase inhibitors for treating osteoarthritis” (priority 1995, dated 2003):

How the values were obtained:
stromelysin mRNA = test: Northern blot of IL-1-induced stromelysin mRNA in primary bovine chondrocytes; format: cell-based; settings: 2 h preincubation, IL-1α 1 ng/ml 24 hours
Method: The isolation of cartilage and the enzymatic degradation of cartilage was carried out as described in Example 1.
Chondrocytes were recovered by addition of an equal volume of DMEM/F12 supplemented with 10% fetal bovine serum (FBS) to neutralize enzymes, filtration through a 70μm nylon Cell Strainer (Falcon), and centrifugation at 1000×g for ten minutes at room temperature. Chondrocytes were seeded in T-150 plates at 5×10^4 cells/cm^2 using 1:1 DMEM/F12, 10% FBS, 1% antibiotic solution (penicillin, streptomycin, fungizone: GIBCO/BRL), and incubated at 37° C., 5% CO2. Cells were refed with DMEM/F12 plus 10% FBS on days 4, 7, and 10. On day 11, test cultures (except for the+interleukin 1α control) were rinsed in phosphate buffered saline (PBS), and preincubated for 2 hours with 5 ml of serum-free DMEM/F12 containing one of the following protein kinase inhibitors:
1) Protein kinase A (PKA) inhibitors; 0.5 μM H88 (Seikagaku Corp.), 0.5 μMH89 (Seikagaku Corp.); 2) Protein kinase G (PKG) and PKA inhibitor; 5.0 μM H89; 3) Protein kinase C. (PKC) inhibitors; 0.5 μM Calphostin C (Calbiochem), 1.0 μM chelerythrine (Calbiochem); 4) CA^2+/Calmodulin Kinase II inhibitor; 5.0 μM KN93 (Seikagaku Corp.); 5) Protein tyrosine kinase (PTK) inhibitors; 50 μM Genistein (Calbiochem), 10 μM Herbimycin A (Calbiochem), 50 μM Tyrphostin A25 (AG 82) (Calbiochem), 50 μm Tyrphostin AG 126 (Calbiochem), 50 μM Tyrphostin B56 (AG 556) (Calbiochem), 20 μM DAPH (Calbiochem).
Recombinant human interleukin 1 α (IL-1α) (R & D Systems) at 1 ng/ml was then added to all cultures (except the IL-1α control) for 24 hours in serum-free DMEM/F12 containing 1% antibiotic solution.
RNA on the Northern blot was fixed to the membrane by baking at 80° C. for 30 minutes.
Prehybridization (1.5 hours) and hybridization (overnight) of the Northern blot with the radioactive probes were performed in 50% formamide, 1×GIBCO/BRL hybridization solution, 0.1% SDS, and 10mM monobasic sodium phosphate, at 42° C. The blot was successively washed two times in 1×SSC/0.1% SDS (15 minutes/wash at room temperature), and two times in 0.2×SSC/0.1% SDS (30 minutes/wash at 55° C.). The blot was allowed to air dry, and was exposed to X-ray film, with intensifying screen, overnight at −70° C.

prostromelysin protein = test: Western immunoblot of IL-1-induced prostromelysin protein in primary bovine chondrocytes; format: cell-based; settings: for effect on IL-1α-induced prostromelysin protein levels: repeat experiment; for effect on IL-1-induced prostromelysin levels: first experiment
Method: Isolation and culturing of primary bovine articular chondrocytes, as well as addition of inhibitors were performed as indicated above in Example 4. The following protein kinase inhibitors were tested: 1) Protein kinase A (PKA) inhibitors; 0.5 μM H88 (Seikagaku Corp.), 0.5 μM H89 (Seikagaku Corp.), 2) Protein kinase C (PKC) inhibitors; 0.5 μM Calphostin C (Calbiochem), 1.0 μM Chelerythrine (Calbiochem); 3) CA^2+/Calmodulin Kinase II inhibitor; 5.0 μM KN93 (Seikagaku Corp.); 4) Protein tyrosine kinase (PTK) inhibitors; 50 μM Genistein (Calbiochem), 10 μM Herbimycin A (Calbiochem).
After the 24 hour IL-1α incubation, the media of each sample was measured and collected on ice in the presence of the protease inhibitors EGTA (5 mM), Pefabloc (1 mM), pepstatin (1 μg/ml), and NEM (5 mM). Media were concentrated approximately 40 fold using a Centriprep-10 ultrafiltration device (Amicon). Concentrated samples were normalized to equivalent starting concentrations (cell number/culture volume), were reduced in the presence of SDS Laemmli sample buffer and electrophoresed in a precast 12% polyacrylamide gel (BioRad). Protein samples were then electroblotted to nitrocellulose and immunodetected using a primary antibody that recognizes both prostromelysin and stromelysin. Immunoreactive bands were visualized with the ABC detection (Pierce) and an NBT/BCIP color reagent (Sigma).
A repeat of the Western immunoblotting experiment using antistromelysin antibodies was performed. Furthermore, additional inhibitors from four enzyme families were examined: 1) Protein tyrosine kinase (PTK) inhibitors: 1 μM Tyrphostin AG 1296 (Calbiochem), 50 μM Tyrphostin A25 (AG 82) (Calbiochem), 50 μM Tyrphostin AG 126 (Calbiochem); 2) Guanylate cyclase inhibitor; 10 μM LY-83583 (Calbiochem); 3) Casein kinase I inhibitor; 20 μM CKI-7 (Seikagaku Corp.); and 4) Protein kinase G (PKG) and PKA inhibitor; 5.0 μM H89.

[1] = concentration not printed in Example 5

| SMILES | effect on IL-1α-induced prostromelysin protein levels (prostromelysin protein; [1]) | inhibition of IL-1-induced upregulation of stromelysin mRNA levels (stromelysin mRNA; 50 μM) | effect on IL-1α-induced prostromelysin protein levels (prostromelysin protein; 50 μM) | further results |
| --- | --- | --- | --- | --- |
| O=C1NC(=O)c2cc(Nc3ccccc3)c(Nc3ccccc3)cc21 [DAPH, 4,5-dianilinophthalimide] | dramatic reduction |  |  | inhibition of IL-1-induced upregulation of stromelysin mRNA levels (stromelysin mRNA; 20 μM): Total inhibition |
| O=c1c(-c2ccc(O)cc2)coc2cc(O)cc(O)c12 [Genistein] |  | Total inhibition | dramatic reduction | effect on IL-1-induced prostromelysin levels (prostromelysin protein; 50 μM): completely inhibited |
| CO[C@H]1[C@@H](OC)C[C@H](C)[C@@H](OC)C2=CC(=O)C=C(NC(=O)/C(C)=C/C=C\[C@H](OC)[C@@H](OC(N)=O)/C(C)=C/[C@@H]1C)C2=O [Herbimycin A] |  |  |  | inhibition of IL-1-induced upregulation of stromelysin mRNA levels (stromelysin mRNA; 10 μM): Total inhibition; effect on IL-1-induced prostromelysin levels (prostromelysin protein; 10 μM): completely inhibited; effect on IL-1α-induced prostromelysin protein levels (prostromelysin protein; 10 μM): dramatic reduction |
| N#CC(C#N)=Cc1cc(O)c(O)c(O)c1 [Tyrphostin AG 82] |  | no effect | slight inhibitory activity |  |
| N#CC(C#N)=Cc1ccc([N+](=O)[O-])c(O)c1 [Tyrphostin AG 126] |  | no effect | no effect |  |
| N#C/C(=C\c1ccc(O)c(O)c1)C(=O)NCCCCc1ccccc1 [Tyrphostin AG 556] | dramatic reduction | Total inhibition |  |  |
